PubChem BioAssay AID1963439 (Molecular Pharmacology Branch, DTP, NCI, 2024)

System: NCI-H196 complex spheroids with HUVEC/MSC, growth % T/C
Experiment: Anticancer human tumor NCI-H196 cell line growth inhibition [Asc];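 further: spheroids exposed to compound for 7 days before measurement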;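 on viability, T/C: 100% = DMSO vehicle control wells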
Conditions: for IC50: curve of first compound; for viability, T/C: stronger effect = lower value
Procedure: Multicellular complex tumor spheroid response to apoptosis pathway targeting inhibitors Alrizomadlin, Pelcitoclax, and Dasminapant in combination with a variety of drugs and investigational agents in selected tumor cell lines
The MDM2 inhibitor alrizomadlin, the Bcl-2/Bcl-xL inhibitor pelcitoclax, and the IAPs inhibitor dasminapant were evaluated both individually and in combination with standard of care and investigational anticancer small molecules within a complex spheroid model of solid tumors. . Complex spheroids include a stromal component modeled by human endothelial cells (HUVEC) and fibroblasts modeled by human mesenchymal stem cells (MSCs). The concentration ranges selected for each drug and investigational agent were based upon clinically achievable concentrations if the clinical Cmax of the agent was known.
Compounds. The drugs and investigational agents: alrizomadlin (APG-115; NSC831270), pelcitoclax (APG-1252; NSC835773), dasminapant (APG-1387;NSC834197), TAK-243 (NSC785004), copanlisib (NSC809693), olaparib (NSC753686), talazoparib (NSC767125), cobimetinib (NSC 768068), eltanexor (KPT-8602, NSC 794443), abemaciclib (NSC 768073), sotorasib (NSC818433), adagrasib (NSC 831453), MRTX-1133 (NSC 836407), Iadademestat (ORY1001, NSC 806812), and RMC-4630 (NSC839698), were obtained from the NCI Developmental Therapeutics Program Chemical Repository. The FDA-approved anticancer drug set is available from the Developmental Therapeutics Program at https://dtp.cancer.gov/organization/dscb/obtaining/available plates.htm. […] The stock solutions were prepared in dimethyl sulfoxide (DMSO, Sigma-Aldrich, St. Louis, MO, cat. D2650) at 800-fold the tested concentration and stored at -70 degrees C prior to their use. All drugs and investigational agents were tested over a range starting from a high concentration at or near the clinical Cmax and decreasing in half-log increments. If the clinical Cmax for an agent had not been determined, the highest concentration tested was 10 microM.
The patient-derived cancer (PDC) cell lines include five colon adenocarcinomas: 186277-243-T-J2-PDC, 616215-338-R-J1-PDC, 439559-082-T-J2-PDC, 463943-066-T-J2-PDC, and 519858-162-T-J1-PDC; three pancreatic carcinomas: 323965-272-R-J2-PDC, 521955-158-R6-J3-PDC, and 521955-158-R2-J5-PDC; two uterine sarcomas: 327498-152-R-J2-PDC and 993429-296-R-J1-PDC; two rhabdomyosarcomas: 755483-174-R-J1-PDC and 772245-204-R-J1-PDC; two soft tissue sarcomas: 126254-015-R-J1-PDC and 494315-158-R-J1-PDC; two malignant fibrous histiocytomas: 317291-083-R-J1-PDC and 596521-263-R-J1-PDC; two breast carcinomas: 171881-019-R-J1-PDC and 885512-296-R-J2-PDC; and one ovarian carcinoma: 6556581-035-R-J-PDC were obtained from the NCI PDMR, (https://pdmr.cancer.gov). The established cell lines HSSY-2 synovial sarcoma (RRID:CVCL 8719), SYO-1 synovial sarcoma (RRID:CVCL_7146), MPNST malignant peripheral neural sheath tumor were obtained from the Sloan Kettering Institute. The following established cell lines were purchased from the American Type Culture Collection (ATCC, Manassas, VA), Sor the received from the NCI repository:, PANC-1 pancreatic carcinoma (CRL-1469, RRID:CVCL_0480), OVCAR-5 ovarian carcinoma (RRID:CVCL_1628), OVCAR-8 ovarian carcinoma (RRID:CVCL_1629), , MCF-7 breast carcinoma (CRL-12584, RRID:CVCL_0031), MDA-MB-231 breast carcinoma (CRL-12532, RRID:CVCL_0062), NCI-H1876 small cell lung carcinoma (CRL-5902, RRID:CVCL_1503), NCI-H510A small cell lung carcinoma (HTB-184, RRID:CVCL_1565), NCI-H1417 (CRL-5869, RRID:CVCL_1469), and NCI-H196 small cell lung carcinoma (CRL-5823, RRID:CVCL_1509). Dr. Peter Houghton (Greehey Children's Cancer Research Institute, University of Texas Health Science Center, San Antonio, TX) provided Rh-18 rhabdomyosarcoma (RRID:CVCL_1659). Pooled donor human umbilical vein endothelial cells (HUVEC, Lonza, cat. CC-2519) and human mesenchymal stem cells (hMSC, Lonza, cat. PT-2501) were purchased from Lonza (Walkersville, MD).
Cell Culture. […]

[1] = second compound 0.03 µM, first compound 0.00316 µM
[2] = second compound 0.03 µM, first compound 0.01 µM
[3] = second compound 0.03 µM, first compound 0.0316 µM
[4] = second compound 0.03 µM, first compound 0.1 µM
[5] = second compound 0.0949 µM, first compound 0.00316 µM
[6] = second compound 0.0949 µM, first compound 0.01 µM
[7] = second compound 0.0949 µM, first compound 0.0316 µM
[8] = second compound 0.0949 µM, first compound 0.1 µM
[9] = second compound 0.3 µM, first compound 0.00316 µM
[10] = second compound 0.3 µM, first compound 0.01 µM
[11] = second compound 0.3 µM, first compound 0.0316 µM
[12] = second compound 0.3 µM, first compound 0.1 µM
[13] = second compound 0.949 µM, first compound 0.00316 µM
[14] = second compound 0.949 µM, first compound 0.01 µM
[15] = second compound 0.949 µM, first compound 0.0316 µM
[16] = second compound 0.949 µM, first compound 0.1 µM
[17] = second compound 3 µM, first compound 0.00316 µM
[18] = second compound 3 µM, first compound 0.01 µM
[19] = second compound 3 µM, first compound 0.0316 µM
[20] = second compound 3 µM, first compound 0.1 µM

Structure (SMILES): CCN1CCN(Cc2ccc(Nc3ncc(F)c(-c4cc(F)c5nc(C)n(C(C)C)c5c4)n3)nc2)CC1 + CCN1C(C(=O)NC23CCC(C(=O)O)(CC2)CC3)C(c2cccc(Cl)c2F)C2(C(=O)Nc3cc(Cl)ccc32)C12CCCCC2
- IC50 (second compound 0.03 µM): > 1000 nM
- IC50 (second compound 0.0949 µM): > 1000 nM
- IC50 (second compound 0.3 µM): > 1000 nM
- IC50 (second compound 0.949 µM): > 1000 nM
- IC50 (second compound 3 µM): > 1000 nM
- viability, T/C [1]: 99.9%
- viability, T/C [2]: 99.8%
- viability, T/C [3]: 96.1%
- viability, T/C [4]: 99.8%
- viability, T/C (second compound 0.03 µM, first compound 0.316 µM): 116%
- viability, T/C (second compound 0.03 µM, first compound 1 µM): 124%
- viability, T/C [5]: 113%
- viability, T/C [6]: 112%
- viability, T/C [7]: 99.4%
- viability, T/C [8]: 106%
- viability, T/C (second compound 0.0949 µM, first compound 0.316 µM): 115%
- viability, T/C (second compound 0.0949 µM, first compound 1 µM): 131%
- viability, T/C [9]: 107%
- viability, T/C [10]: 128%
- viability, T/C [11]: 117%
- viability, T/C [12]: 114%
- viability, T/C (second compound 0.3 µM, first compound 0.316 µM): 117%
- viability, T/C (second compound 0.3 µM, first compound 1 µM): 140%
- viability, T/C [13]: 127%
- viability, T/C [14]: 111%
- viability, T/C [15]: 123%
- viability, T/C [16]: 113%
- viability, T/C (second compound 0.949 µM, first compound 0.316 µM): 120%
- viability, T/C (second compound 0.949 µM, first compound 1 µM): 142%
- viability, T/C [17]: 129%
- viability, T/C [18]: 123%
- viability, T/C [19]: 114%
- viability, T/C [20]: 109%
- viability, T/C (second compound 3 µM, first compound 0.316 µM): 119%
- viability, T/C (second compound 3 µM, first compound 1 µM): 139%

Structure (SMILES): NC(=O)C(=Cn1cnc(-c2cc(C(F)(F)F)cc(C(F)(F)F)c2)n1)c1cncnc1 + CCN1C(C(=O)NC23CCC(C(=O)O)(CC2)CC3)C(c2cccc(Cl)c2F)C2(C(=O)Nc3cc(Cl)ccc32)C12CCCCC2
- IC50 (second compound 0.03 µM): 22.1 nM
- IC50 (second compound 0.0949 µM): 24.3 nM
- IC50 (second compound 0.3 µM): 26.2 nM
- IC50 (second compound 0.949 µM): 26.4 nM
- IC50 (second compound 3 µM): 26.8 nM
- viability, T/C (second compound 0.03 µM, first compound 0.000949 µM): 110%
- viability, T/C (second compound 0.03 µM, first compound 0.003 µM): 99.3%
- viability, T/C (second compound 0.03 µM, first compound 0.00949 µM): 79.1%
- viability, T/C (second compound 0.03 µM, first compound 0.03 µM): 41.6%
- viability, T/C (second compound 0.03 µM, first compound 0.0949 µM): 7.35%
- viability, T/C (second compound 0.03 µM, first compound 0.3 µM): 4.55%
- viability, T/C (second compound 0.0949 µM, first compound 0.000949 µM): 100%
- viability, T/C (second compound 0.0949 µM, first compound 0.003 µM): 103%
- viability, T/C (second compound 0.0949 µM, first compound 0.00949 µM): 85.2%
- viability, T/C (second compound 0.0949 µM, first compound 0.03 µM): 42.6%
- viability, T/C (second compound 0.0949 µM, first compound 0.0949 µM): 8.3%
- viability, T/C (second compound 0.0949 µM, first compound 0.3 µM): 3.76%
- viability, T/C (second compound 0.3 µM, first compound 0.000949 µM): 108%
- viability, T/C (second compound 0.3 µM, first compound 0.003 µM): 101%
- viability, T/C (second compound 0.3 µM, first compound 0.00949 µM): 90.4%
- viability, T/C (second compound 0.3 µM, first compound 0.03 µM): 46.1%
- viability, T/C (second compound 0.3 µM, first compound 0.0949 µM): 4.78%
- viability, T/C (second compound 0.3 µM, first compound 0.3 µM): 5.31%
- viability, T/C (second compound 0.949 µM, first compound 0.000949 µM): 116%
- viability, T/C (second compound 0.949 µM, first compound 0.003 µM): 109%
- viability, T/C (second compound 0.949 µM, first compound 0.00949 µM): 93.1%
- viability, T/C (second compound 0.949 µM, first compound 0.03 µM): 46.6%
- viability, T/C (second compound 0.949 µM, first compound 0.0949 µM): 4.71%
- viability, T/C (second compound 0.949 µM, first compound 0.3 µM): 5.06%
- viability, T/C (second compound 3 µM, first compound 0.000949 µM): 124%
- viability, T/C (second compound 3 µM, first compound 0.003 µM): 119%
- viability, T/C (second compound 3 µM, first compound 0.00949 µM): 106%
- viability, T/C (second compound 3 µM, first compound 0.03 µM): 44.6%
- viability, T/C (second compound 3 µM, first compound 0.0949 µM): 3.65%
- viability, T/C (second compound 3 µM, first compound 0.3 µM): 4.05%

Structure (SMILES): NC1CCC(NC2CC2c2ccccc2)CC1 (stereo not given) + CCN1C(C(=O)NC23CCC(C(=O)O)(CC2)CC3)C(c2cccc(Cl)c2F)C2(C(=O)Nc3cc(Cl)ccc32)C12CCCCC2
- IC50 (second compound 0.03 µM): > 100 nM
- IC50 (second compound 0.0949 µM): > 100 nM
- IC50 (second compound 0.3 µM): > 100 nM
- IC50 (second compound 0.949 µM): > 100 nM
- IC50 (second compound 3 µM): > 100 nM
- viability, T/C (second compound 0.03 µM, first compound 0.000316 µM): 109%
- viability, T/C (second compound 0.03 µM, first compound 0.001 µM): 98%
- viability, T/C [1]: 109%
- viability, T/C [2]: 110%
- viability, T/C [3]: 105%
- viability, T/C [4]: 96.7%
- viability, T/C (second compound 0.0949 µM, first compound 0.000316 µM): 102%
- viability, T/C (second compound 0.0949 µM, first compound 0.001 µM): 108%
- viability, T/C [5]: 111%
- viability, T/C [6]: 103%
- viability, T/C [7]: 100%
- viability, T/C [8]: 105%
- viability, T/C (second compound 0.3 µM, first compound 0.000316 µM): 118%
- viability, T/C (second compound 0.3 µM, first compound 0.001 µM): 117%
- viability, T/C [9]: 108%
- viability, T/C [10]: 105%
- viability, T/C [11]: 97.8%
- viability, T/C [12]: 119%
- viability, T/C (second compound 0.949 µM, first compound 0.000316 µM): 111%
- viability, T/C (second compound 0.949 µM, first compound 0.001 µM): 121%
- viability, T/C [13]: 112%
- viability, T/C [14]: 114%
- viability, T/C [15]: 115%
- viability, T/C [16]: 119%
- viability, T/C (second compound 3 µM, first compound 0.000316 µM): 119%
- viability, T/C (second compound 3 µM, first compound 0.001 µM): 123%
- viability, T/C [17]: 112%
- viability, T/C [18]: 104%
- viability, T/C [19]: 115%
- viability, T/C [20]: 112%
